Source: PubChem BioAssay AID2060907 (Molecular Pharmacology Branch, DTP, NCI, 2025)

Tested on: 388556-164-R-J1-PDC complex spheroid viability
Assay: Anticancer human tumor 388556-164-R-J1-PDC patient-derived colon adenocarcinoma cell line growth inhibition [RAS]
Conditions: for IC50: curve of first compound; for viability, T/C: stronger effect = lower value
Outline: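 Tumour cells grown as complex spheroids with HUVEC endothelial cells and mesenchymal stem cells, treated with RAS pathway inhibitor combinations. Each agent spans half-log steps from near clinical Cmax, or 10 microM where Cmax is unknown.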

[1] = second compound 0.000949 µM, first compound 0.0316 µM
[2] = second compound 0.000949 µM, first compound 0.1 µM
[3] = second compound 0.000949 µM, first compound 0.316 µM
[4] = second compound 0.000949 µM, first compound 1 µM
[5] = second compound 0.000949 µM, first compound 3.16 µM
[6] = second compound 0.000949 µM, first compound 10 µM
[7] = second compound 0.003 µM, first compound 0.0316 µM
[8] = second compound 0.003 µM, first compound 0.1 µM
[9] = second compound 0.003 µM, first compound 0.316 µM
[10] = second compound 0.003 µM, first compound 1 µM
[11] = second compound 0.003 µM, first compound 3.16 µM
[12] = second compound 0.003 µM, first compound 10 µM
[13] = second compound 0.00949 µM, first compound 0.0316 µM
[14] = second compound 0.00949 µM, first compound 0.1 µM
[15] = second compound 0.00949 µM, first compound 0.316 µM
[16] = second compound 0.00949 µM, first compound 1 µM
[17] = second compound 0.00949 µM, first compound 3.16 µM
[18] = second compound 0.00949 µM, first compound 10 µM
[19] = second compound 0.03 µM, first compound 0.0316 µM
[20] = second compound 0.03 µM, first compound 0.1 µM
[21] = second compound 0.03 µM, first compound 0.316 µM
[22] = second compound 0.03 µM, first compound 1 µM
[23] = second compound 0.03 µM, first compound 3.16 µM
[24] = second compound 0.03 µM, first compound 10 µM
[25] = second compound 0.0949 µM, first compound 0.0316 µM
[26] = second compound 0.0949 µM, first compound 0.1 µM
[27] = second compound 0.0949 µM, first compound 0.316 µM
[28] = second compound 0.0949 µM, first compound 1 µM
[29] = second compound 0.0949 µM, first compound 3.16 µM
[30] = second compound 0.0949 µM, first compound 10 µM
[31] = second compound 0.3 µM, first compound 0.0316 µM
[32] = second compound 0.3 µM, first compound 0.1 µM
[33] = second compound 0.3 µM, first compound 0.316 µM
[34] = second compound 0.3 µM, first compound 1 µM
[35] = second compound 0.3 µM, first compound 3.16 µM
[36] = second compound 0.3 µM, first compound 10 µM
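Further: spheroids exposed to compound for 7 days before readout.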
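Wherever viability, T/C is given: 100% = DMSO vehicle control luminescence.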

Cc1nc(N2CCC3(CC2)COC(C)C3N)c(CO)nc1Sc1ccnc(N)c1Cl (stereo unspecified) + CCn1c(-c2cccnc2C(C)OC)c2c3cc(ccc31)N1CCOC(CC(NC(=O)C(C(C)C)N(C)C(=O)C3(F)CCN(C(=O)C#CC(C)(C)N(C)C)CC3)C(=O)N3CCCC(N3)C(=O)OCC(C)(C)C2)C1
IC50 (second compound 0.000949 µM): > 10 µM | IC50 (second compound 0.003 µM): 5.69 µM | IC50 (second compound 0.00949 µM): 4.81 µM | IC50 (second compound 0.03 µM): 5.74 µM | IC50 (second compound 0.0949 µM): 3.95 µM | IC50 (second compound 0.3 µM): 2.34 µM | viability, T/C [1]: 97.1% | viability, T/C [2]: 95.6% | viability, T/C [3]: 77.4% | viability, T/C [4]: 55.2% | viability, T/C [5]: 56% | viability, T/C [6]: 47.1% | viability, T/C [7]: 108% | viability, T/C [8]: 93.9% | viability, T/C [9]: 76.7% | viability, T/C [10]: 66.4% | viability, T/C [11]: 56% | viability, T/C [12]: 44.6% | viability, T/C [13]: 91.5% | viability, T/C [14]: 99.9% | viability, T/C [15]: 82.9% | viability, T/C [16]: 61.7% | viability, T/C [17]: 57.3% | viability, T/C [18]: 43.7% | viability, T/C [19]: 105% | viability, T/C [20]: 98.7% | viability, T/C [21]: 75.6% | viability, T/C [22]: 63.4% | viability, T/C [23]: 56.4% | viability, T/C [24]: 45.1% | viability, T/C [25]: 90.1% | viability, T/C [26]: 95% | viability, T/C [27]: 75% | viability, T/C [28]: 62.8% | viability, T/C [29]: 56% | viability, T/C [30]: 40.5% | viability, T/C [31]: 92.5% | viability, T/C [32]: 86.7% | viability, T/C [33]: 65.2% | viability, T/C [34]: 55.6% | viability, T/C [35]: 52.4% | viability, T/C [36]: 40.1%

NC1c2ccccc2OC12CCN(c1cnc3c(N4CCCc5ncccc54)n[nH]c3n1)CC2 (stereo unspecified) + CCn1c(-c2cccnc2C(C)OC)c2c3cc(ccc31)N1CCOC(CC(NC(=O)C(C(C)C)N(C)C(=O)C3(F)CCN(C(=O)C#CC(C)(C)N(C)C)CC3)C(=O)N3CCCC(N3)C(=O)OCC(C)(C)C2)C1
IC50 (second compound 0.000949 µM): 0.192 µM | IC50 (second compound 0.003 µM): 0.22 µM | IC50 (second compound 0.00949 µM): 0.239 µM | IC50 (second compound 0.03 µM): 0.129 µM | IC50 (second compound 0.0949 µM): 0.18 µM | IC50 (second compound 0.3 µM): 0.1 µM | viability, T/C [1]: 63.8% | viability, T/C [2]: 54.9% | viability, T/C [3]: 46% | viability, T/C [4]: 40.4% | viability, T/C [5]: 44% | viability, T/C [6]: 35.3% | viability, T/C [7]: 70.6% | viability, T/C [8]: 56.3% | viability, T/C [9]: 49.1% | viability, T/C [10]: 37.1% | viability, T/C [11]: 36.2% | viability, T/C [12]: 33% | viability, T/C [13]: 77.8% | viability, T/C [14]: 57.9% | viability, T/C [15]: 47.1% | viability, T/C [16]: 41.5% | viability, T/C [17]: 42% | viability, T/C [18]: 35.9% | viability, T/C [19]: 73.1% | viability, T/C [20]: 50.4% | viability, T/C [21]: 44.6% | viability, T/C [22]: 38.5% | viability, T/C [23]: 37.2% | viability, T/C [24]: 35.4% | viability, T/C [25]: 66.8% | viability, T/C [26]: 56.3% | viability, T/C [27]: 43.5% | viability, T/C [28]: 38.1% | viability, T/C [29]: 36.4% | viability, T/C [30]: 31.8% | viability, T/C [31]: 59.7% | viability, T/C [32]: 49.6% | viability, T/C [33]: 42.8% | viability, T/C [34]: 35.1% | viability, T/C [35]: 30.6% | viability, T/C [36]: 27.6%

Nc1ccn(C2OC(CO)C(O)C2(F)F)c(=O)n1 (stereo unspecified) + CCn1c(-c2cccnc2C(C)OC)c2c3cc(ccc31)N1CCOC(CC(NC(=O)C(C(C)C)N(C)C(=O)C3(F)CCN(C(=O)C#CC(C)(C)N(C)C)CC3)C(=O)N3CCCC(N3)C(=O)OCC(C)(C)C2)C1
IC50 (second compound 0.000949 µM): > 1 µM | IC50 (second compound 0.003 µM): > 1 µM | IC50 (second compound 0.00949 µM): > 1 µM | IC50 (second compound 0.03 µM): > 1 µM | IC50 (second compound 0.0949 µM): > 1 µM | IC50 (second compound 0.3 µM): > 1 µM | viability, T/C (second compound 0.000949 µM, first compound 0.00316 µM): 96% | viability, T/C (second compound 0.000949 µM, first compound 0.01 µM): 85.5% | viability, T/C [1]: 77.4% | viability, T/C [2]: 71.8% | viability, T/C [3]: 71.6% | viability, T/C [4]: 64.1% | viability, T/C (second compound 0.003 µM, first compound 0.00316 µM): 102% | viability, T/C (second compound 0.003 µM, first compound 0.01 µM): 90.5% | viability, T/C [7]: 76.8% | viability, T/C [8]: 72.1% | viability, T/C [9]: 72.4% | viability, T/C [10]: 65.8% | viability, T/C (second compound 0.00949 µM, first compound 0.00316 µM): 99.1% | viability, T/C (second compound 0.00949 µM, first compound 0.01 µM): 91.8% | viability, T/C [13]: 78.6% | viability, T/C [14]: 69.4% | viability, T/C [15]: 70% | viability, T/C [16]: 64.5% | viability, T/C (second compound 0.03 µM, first compound 0.00316 µM): 98.4% | viability, T/C (second compound 0.03 µM, first compound 0.01 µM): 92.7% | viability, T/C [19]: 79% | viability, T/C [20]: 67.5% | viability, T/C [21]: 70.6% | viability, T/C [22]: 61.7% | viability, T/C (second compound 0.0949 µM, first compound 0.00316 µM): 90.6% | viability, T/C (second compound 0.0949 µM, first compound 0.01 µM): 86.3% | viability, T/C [25]: 74.7% | viability, T/C [26]: 67.6% | viability, T/C [27]: 68.1% | viability, T/C [28]: 62.2% | viability, T/C (second compound 0.3 µM, first compound 0.00316 µM): 81.7% | viability, T/C (second compound 0.3 µM, first compound 0.01 µM): 78% | viability, T/C [31]: 69.8% | viability, T/C [32]: 68.4% | viability, T/C [33]: 67.2% | viability, T/C [34]: 59.5%
